#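 96-well plates; 48 h exposure; 5 concentrations. Endpoints by linear interpolation between flanking doses. Not reached: highest tested concentration assigned. GI50 = concentration required for 50% inhibition of growth. TGI is the concentration that stops growth completely.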
# Tests used:
# Assay in all cases: inhibition of tumour cell growth, NCI panel, 48 h
# 786-0 renal = test system: 786-0 renal
# A498 renal = test system: A498 renal
# A549 NSCLC = test system: A549 NSCLC
# ACHN renal = test system: ACHN renal
# BT-549 breast = test system: BT-549 breast
# CCRF-CEM leukemia = test system: CCRF-CEM leukemia
# COLO 205 colon = test system: COLO 205 colon
# DU-145 prostate = test system: DU-145 prostate
# EKVX NSCLC = test system: EKVX NSCLC
# HCC-2998 colon = test system: HCC-2998 colon
# HCT-116 colon = test system: HCT-116 colon
# HCT-15 colon = test system: HCT-15 colon
# HL-60(TB) leukemia = test system: HL-60(TB) leukemia
# HOP-62 NSCLC = test system: HOP-62 NSCLC
# HS 578T breast = test system: HS 578T breast
# IGROV1 ovarian = test system: IGROV1 ovarian
# K-562 leukemia = test system: K-562 leukemia
# KM12 colon = test system: KM12 colon
# LOX IMVI melanoma = test system: LOX IMVI melanoma
# MALME-3M melanoma = test system: MALME-3M melanoma
# MCF7 breast = test system: MCF7 breast
# MDA-MB-231 breast = test system: MDA-MB-231 breast
# MDA-MB-435 = test system: MDA-MB-435
# MOLT-4 leukemia = test system: MOLT-4 leukemia
# NCI-H23 lung = test system: NCI-H23 lung
# NCI-H460 lung = test system: NCI-H460 lung
# NCI-H522 lung = test system: NCI-H522 lung
# NCI/ADR-RES ovarian = test system: NCI/ADR-RES ovarian
# OVCAR-3 ovarian = test system: OVCAR-3 ovarian
# OVCAR-4 ovarian = test system: OVCAR-4 ovarian
# OVCAR-5 ovarian = test system: OVCAR-5 ovarian
# OVCAR-8 ovarian = test system: OVCAR-8 ovarian
# PC-3 prostate = test system: PC-3 prostate
# RPMI-8226 leukemia = test system: RPMI-8226 leukemia
# RXF 393 renal = test system: RXF 393 renal
# SF-268 CNS = test system: SF-268 CNS
# SF-295 CNS = test system: SF-295 CNS
# SF-539 CNS = test system: SF-539 CNS
# SK-MEL-28 melanoma = test system: SK-MEL-28 melanoma
# SK-MEL-5 melanoma = test system: SK-MEL-5 melanoma
# SK-OV-3 ovarian = test system: SK-OV-3 ovarian
# SN12C renal = test system: SN12C renal
# SR leukemia = test system: SR leukemia
# SW-620 colon = test system: SW-620 colon
# T-47D breast = test system: T-47D breast
# TK-10 renal = test system: TK-10 renal
# U251 CNS = test system: U251 CNS
# UACC-257 melanoma = test system: UACC-257 melanoma
# UACC-62 melanoma = test system: UACC-62 melanoma
# CAKI-1 renal = test system: CAKI-1 renal
# HOP-92 NSCLC = test system: HOP-92 NSCLC
# HT29 colon = test system: HT29 colon
# M14 melanoma = test system: M14 melanoma
# NCI-H226 lung = test system: NCI-H226 lung
# SK-MEL-2 melanoma = test system: SK-MEL-2 melanoma
# SNB-19 CNS = test system: SNB-19 CNS
# UO-31 renal = test system: UO-31 renal
smiles,measurement,setting,value
COC(=O)[C@@H](Cc1ccccc1)NNC(=O)OC(C)(C)C,TGI,786-0 renal,> 100 µM
same,TGI,A498 renal,> 100 µM
same,TGI,A549 NSCLC,> 100 µM
same,TGI,ACHN renal,> 100 µM
same,TGI,BT-549 breast,> 100 µM
same,TGI,CCRF-CEM leukemia,> 100 µM
same,TGI,COLO 205 colon,> 100 µM
same,TGI,DU-145 prostate,> 100 µM
same,TGI,EKVX NSCLC,> 100 µM
same,TGI,HCC-2998 colon,> 100 µM
same,TGI,HCT-116 colon,> 100 µM
same,TGI,HCT-15 colon,> 100 µM
same,TGI,HL-60(TB) leukemia,> 100 µM
same,TGI,HOP-62 NSCLC,> 100 µM
same,TGI,HS 578T breast,> 100 µM
same,TGI,IGROV1 ovarian,> 100 µM
same,TGI,K-562 leukemia,> 100 µM
same,TGI,KM12 colon,> 100 µM
same,TGI,LOX IMVI melanoma,> 100 µM
same,TGI,MALME-3M melanoma,> 100 µM
same,TGI,MCF7 breast,> 100 µM
same,TGI,MDA-MB-231 breast,> 100 µM
same,TGI,MDA-MB-435,> 100 µM
same,TGI,MOLT-4 leukemia,> 100 µM
same,TGI,NCI-H23 lung,> 100 µM
same,TGI,NCI-H460 lung,> 100 µM
same,TGI,NCI-H522 lung,> 100 µM
same,TGI,NCI/ADR-RES ovarian,> 100 µM
same,TGI,OVCAR-3 ovarian,> 100 µM
same,TGI,OVCAR-4 ovarian,> 100 µM
same,TGI,OVCAR-5 ovarian,> 100 µM
same,TGI,OVCAR-8 ovarian,> 100 µM
same,TGI,PC-3 prostate,> 100 µM
same,TGI,RPMI-8226 leukemia,> 100 µM
same,TGI,RXF 393 renal,> 100 µM
same,TGI,SF-268 CNS,> 100 µM
same,TGI,SF-295 CNS,> 100 µM
same,TGI,SF-539 CNS,> 100 µM
same,TGI,SK-MEL-28 melanoma,> 100 µM
same,TGI,SK-MEL-5 melanoma,> 100 µM
same,TGI,SK-OV-3 ovarian,> 100 µM
same,TGI,SN12C renal,> 100 µM
same,TGI,SR leukemia,> 100 µM
same,TGI,SW-620 colon,> 100 µM
same,TGI,T-47D breast,> 100 µM
same,TGI,TK-10 renal,> 100 µM
same,TGI,U251 CNS,> 100 µM
same,TGI,UACC-257 melanoma,> 100 µM
same,TGI,UACC-62 melanoma,> 100 µM
Nc1nc(N)c2cc(CNc3ccc(C(=O)NC(CC(=O)O)C(=O)O)cc3)ccc2n1 (stereo unspecified),GI50,786-0 renal,0.103 µM
same,TGI,786-0 renal,> 100 µM
same,TGI,A498 renal,> 100 µM
same,GI50,A549 NSCLC,0.0578 µM
same,TGI,A549 NSCLC,> 100 µM
same,GI50,ACHN renal,0.18 µM
same,TGI,ACHN renal,> 100 µM
same,GI50,BT-549 breast,0.429 µM
same,TGI,BT-549 breast,> 100 µM
same,GI50,CAKI-1 renal,0.108 µM
same,TGI,CAKI-1 renal,> 100 µM
same,GI50,CCRF-CEM leukemia,0.0839 µM
same,TGI,CCRF-CEM leukemia,> 100 µM
same,GI50,COLO 205 colon,3.4 µM
same,TGI,COLO 205 colon,> 100 µM
same,GI50,DU-145 prostate,0.17 µM
same,TGI,DU-145 prostate,> 100 µM
same,TGI,EKVX NSCLC,> 100 µM
same,GI50,HCC-2998 colon,0.281 µM
same,TGI,HCC-2998 colon,> 82 µM
same,GI50,HCT-116 colon,0.026 µM
same,TGI,HCT-116 colon,> 100 µM
same,GI50,HCT-15 colon,0.049 µM
same,TGI,HCT-15 colon,> 100 µM
same,GI50,HL-60(TB) leukemia,0.0325 µM
same,TGI,HL-60(TB) leukemia,> 100 µM
same,GI50,HOP-62 NSCLC,0.196 µM
same,TGI,HOP-62 NSCLC,> 100 µM
same,GI50,HOP-92 NSCLC,> 41 µM
same,TGI,HOP-92 NSCLC,> 100 µM
same,GI50,HS 578T breast,> 55.4 µM
same,TGI,HS 578T breast,> 100 µM
same,GI50,HT29 colon,0.0594 µM
same,TGI,HT29 colon,> 100 µM
same,GI50,IGROV1 ovarian,0.187 µM
same,TGI,IGROV1 ovarian,> 100 µM
same,GI50,K-562 leukemia,0.0359 µM
same,TGI,K-562 leukemia,> 100 µM
same,GI50,KM12 colon,0.0817 µM
same,TGI,KM12 colon,> 100 µM
same,GI50,LOX IMVI melanoma,0.0434 µM
same,TGI,LOX IMVI melanoma,> 100 µM
same,GI50,M14 melanoma,0.119 µM
same,TGI,M14 melanoma,> 87.7 µM
same,TGI,MALME-3M melanoma,> 100 µM
same,GI50,MCF7 breast,0.0621 µM
same,TGI,MCF7 breast,> 100 µM
same,GI50,MDA-MB-231 breast,> 83.7 µM
same,TGI,MDA-MB-231 breast,> 100 µM
same,GI50,MDA-MB-435,0.0589 µM
same,TGI,MDA-MB-435,> 100 µM
same,GI50,MOLT-4 leukemia,0.825 µM
same,TGI,MOLT-4 leukemia,> 100 µM
same,TGI,NCI-H226 lung,> 100 µM
same,GI50,NCI-H23 lung,0.311 µM
same,TGI,NCI-H23 lung,> 100 µM
same,GI50,NCI-H460 lung,0.0492 µM
same,TGI,NCI-H460 lung,> 100 µM
same,TGI,NCI-H522 lung,> 100 µM
same,GI50,NCI/ADR-RES ovarian,0.126 µM
same,TGI,NCI/ADR-RES ovarian,> 100 µM
same,GI50,OVCAR-3 ovarian,3.83 µM
same,TGI,OVCAR-3 ovarian,> 100 µM
same,GI50,OVCAR-4 ovarian,> 100 µM
same,TGI,OVCAR-4 ovarian,> 100 µM
same,TGI,OVCAR-5 ovarian,> 100 µM
same,GI50,OVCAR-8 ovarian,0.104 µM
same,TGI,OVCAR-8 ovarian,> 100 µM
same,TGI,PC-3 prostate,> 100 µM
same,GI50,RPMI-8226 leukemia,0.694 µM
same,TGI,RPMI-8226 leukemia,> 100 µM
same,GI50,RXF 393 renal,> 100 µM
same,TGI,RXF 393 renal,> 100 µM
same,GI50,SF-268 CNS,0.174 µM
same,TGI,SF-268 CNS,> 100 µM
same,GI50,SF-295 CNS,0.0611 µM
same,GI50,SF-539 CNS,0.162 µM
same,TGI,SF-539 CNS,> 100 µM
same,TGI,SK-MEL-2 melanoma,> 100 µM
same,TGI,SK-MEL-28 melanoma,> 100 µM
same,GI50,SK-MEL-5 melanoma,0.34 µM
same,TGI,SK-MEL-5 melanoma,> 100 µM
same,GI50,SK-OV-3 ovarian,1.3 µM
same,TGI,SK-OV-3 ovarian,> 100 µM
same,GI50,SN12C renal,0.211 µM
same,TGI,SN12C renal,> 100 µM
same,GI50,SNB-19 CNS,2.16 µM
same,TGI,SNB-19 CNS,> 100 µM
same,TGI,SR leukemia,> 100 µM
same,GI50,SW-620 colon,0.0432 µM
same,TGI,SW-620 colon,> 100 µM
same,GI50,T-47D breast,> 100 µM
same,TGI,T-47D breast,> 100 µM
same,TGI,TK-10 renal,> 100 µM
same,GI50,U251 CNS,0.2 µM
same,TGI,U251 CNS,> 100 µM
same,GI50,UACC-257 melanoma,> 100 µM
same,TGI,UACC-257 melanoma,> 100 µM
same,GI50,UACC-62 melanoma,0.218 µM
same,TGI,UACC-62 melanoma,> 100 µM
same,GI50,UO-31 renal,0.358 µM
same,TGI,UO-31 renal,> 100 µM
